Measured values reported in patent US20130183362A1, “SYNTHESIS OF ZINC ACRYLATE COPOLYMER FROM ACID FUNCTIONAL COPOLYMER, ZINC PYRITHIONE, AND COPPER COMPOUND” (ARCH CHEMICALS, INC., priority 2010, published 2013).
Where two headings read alike, the source gives them in different places.

Settings: SEM images; for Ave. Aspect Ratio (length/width): Hitachi S-300N, length divided by width
Description: All images were obtained using a Hitachi S-300N Scanning electron Microscope.
Procedure: Aspect ratio was determined by superimposing a micron scale over the particle images and visually comparing the width and length of the particles to the scale. Length divided by width determines the aspect ratio. The images were obtained using a Hitachi S-300N Scanning electron Microscope.

Row | Structure (SMILES) | Ave. Aspect Ratio (length/width) | particles having an aspect ratio greater than 15 | Ave. Aspect Ratio (length/width) (listed as commercially available milled copper pyrithione)
1 | On1ccccc1=S.On1ccccc1=S.[Cu] [Sample 507C, copper pyrithione] | 12.2 |  | 
2 | On1ccccc1=S.On1ccccc1=S.[Cu] [Sample 513, copper pyrithione] | 4.3 | none of the particles | 4.3
3 | On1ccccc1=S.On1ccccc1=S.[Cu] [Sample 508D, copper pyrithione] | 9.1 |  | 
